# In US11603368B2, “Fused thiophene derivatives and their uses” (ENYO PHARMA, priority 2018, dated 2023):
# Assays:
# [1] = tested on: H1N1 (influenza A/New Caledonia/20/99); test: Antiviral effect on A549 cells infected with H1N1; type: cell-based, H1N1 A/New Caledonia/20/99 virus; settings: Human A549 cells, MOI of 0.1, 48 h post-infection, MUNANA hydrolysis readout
# Method: The antiviral effect of the compounds of the invention has been tested on A549 cell lines infected with H1N1 (influenza A/New Caledonia/20/99).
# Human A549 cells (80,000 cells/well in a 96 well plate) were treated with a range of concentration of test molecules and immediately infected by H1N1 A/New Caledonia/20/99 virus (clinical isolate) at MOI of 0.1 in DMEM/1% Penicillin/streptomycin supplemented with 0.25 μg/ml TPCK trypsin (Sigma) and incubated at 37° C. in 5% CO2. 48 h post-infection, supernatants (25 μl) were collected and transferred into a 96-well black flat-bottom plate, mixed with 25 μl PBS with Ca++/Mg++(Thermo Fisher) and 50 μl of 2′-(4-Methylumbelliferyl)-α-D-N-acetylneuraminic acid sodium salt hydrate stock-solution (20 μM, MUNANA, Sigma). Plates were incubated 1 h at 37° C. and reaction is stopped by adding 100 μl of Stop Solution (glycine 0.1 M pH10.7/25% ethanol). The amount of fluorescent product released by MUNANA hydrolysis (4-MU) was measured in a Tecan spectrophotometer with excitation and emission wavelengths of 365 and 450 nm respectively.
# [2] = target: T1, CISD1 Gene Product (mitoNEET) (Homo sapiens, UniProt Q9NZ45); test: Stability of Fe—S cluster binding of purified NEET protein mitoNEET; type: biochemical; settings: for Time (in minutes) to achieve 50% loss of bound cluster (Absorbance 458 nm), CISD1 Gene Product (mitoNEET) / Residual cluster bound at end of experiment (Percentage Absorbance 458 nm at time zero), CISD1 Gene Product (mitoNEET): pH 6, 37° C., 1:3 protein:compound molar ratio; for Time (in minutes) to achieve 50% loss of bound cluster (Absorbance 458 nm), CISD1 Gene Product (mitoNEET): 6 μM compound, run time 180 minutes, Vehicle Control 80; for Residual cluster bound at end of experiment (Percentage Absorbance 458 nm at time zero), CISD1 Gene Product (mitoNEET): end of 180 minutes, Vehicle Control 16%; for stabiliser or destabiliser of Fe—S cluster binding, CISD1 Gene Product (mitoNEET): time to 50% Fe—S cluster bound loss changed by more than 25% vs Control sample, at the concentrations tested
# T1 sequence (Q9NZ45 33-108 limits assumed): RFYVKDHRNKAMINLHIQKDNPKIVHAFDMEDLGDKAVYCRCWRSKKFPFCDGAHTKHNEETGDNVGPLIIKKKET
# Method: (§1) The modulator effect on the NEET proteins encoded by human CISD1, CISD2, and CISD3 genes by the compounds of the invention has been tested and is reported below. Particularly, the biochemical function of the NEET proteins is measured by the stability of Fe—S cluster binding of the purified NEET proteins.
# (§2) The Fe—S cluster binding capacity of NEET proteins is known to be coordinated by four amino-acids in a stretch of 16 (three Cysteine and one Histidine). As the lability of the Fe—S cluster of NEET proteins is sensitive to the environment, cluster stability measurements are one of the measures of interactions of NEET proteins with small molecules and compounds. NEET protein/2Fe-2S cluster stability can be assessed by monitoring the decay in absorbance of its characteristic 458-nm peak (characteristic of the oxidized 2Fe-2S cluster) over time. Each NEET protein (mitoNEET, NAF-1 and Miner 2) was tested for its Fe—S binding in the absence or presence of a compound according to the invention (see table 2 below). The rate of cluster release (time in minutes to achieve 50% loss of bound Fe—S cluster) was compared for each NEET protein in the presence of one of the compounds of the invention (in a 1:3 protein:compound molar ratio) relative to each protein alone.
# (§3) At pH 6, all the three NEET proteins (mitoNEET, NAF-1 and Miner 2) have a characteristic rate of loss of the bound Fe—S cluster that can be measured by the decrease of absorbance at wavelength 458 nm over time, using a spectrophotometer. Thus, Bis-Tris buffer (100 mM Bis-Tris pH6, 100 mM Nacl) was used at pH 6 to dilute either DMSO (Blank sample: Bis-Tris Buffer pH 6, 6 μM DMSO), DMSO and one of the three NEET proteins (Control sample: Bis-Tris Buffer pH 6, 6 μM DMSO, 2 μM purified NEET protein) or DMSO, one of the three NEET proteins and a compound of the invention (Test sample: Bis-Tris Buffer pH 6, 6 μM DMSO, […], 6 μM compound of the invention).
# (§4) A reaction mix containing DMSO diluted in the Bis-Tris Buffer with or without a compound of the invention was prepared. The purified NEET protein was the last component added to the reaction mix which was then aliquoted into 4 replicates in 96 wells plates. The absorbance at wavelength 458 nm was taken at 5 minutes intervals at 37° C. with a spectrofluorimeter. The assay run time for CISD2 gene product (NAF-1) was 500 minutes and 180 minutes for both the CISD 1 gene product (mitoNEET) and the CISD3 gene product (Miner 2).
# (§5) In addition to time monitoring, residual bound Fe—S cluster to NEET protein was measured at the final point of the spectrometry assay for each Test sample and compared to the Control sample data (in parenthesis table 2). This residual binding is measured by the differential percentage between the absorbance 458 nm at time zero and the absorbance 458 nm at the end of the experiment (i.e. respectively 500 or 180 minutes as described hereabove), showing the percentage of NEET protein still able to bind a Fe—S cluster.
# (§6) Analysis of the absorbance enables the time for which 50% loss of bound Fe—S cluster is reached (i.e. a 50% absorbance decrease at 458 nm) for each Test sample and each Control sample (in parenthesis table 2) to be determined. The data are then compared to determine whether the compound of the invention stabilizes or destabilizes the NEET protein/Fe—S cluster binding.
# [3] = target: T2, CISD2 Gene Product (NAF-1) (Homo sapiens, UniProt Q8N5K1); test: Stability of Fe—S cluster binding of purified NEET protein NAF-1; type: biochemical; settings: for Time (in minutes) to achieve 50% loss of bound cluster (Absorbance 458 nm), CISD2 Gene Product (NAF-1) / Residual cluster bound at end of experiment (Percentage Absorbance 458 nm at time zero), CISD2 Gene Product (NAF-1): pH 6, 37° C., 1:3 protein:compound molar ratio; for Time (in minutes) to achieve 50% loss of bound cluster (Absorbance 458 nm), CISD2 Gene Product (NAF-1): 6 μM compound, run time 500 minutes, Vehicle Control 310; for Residual cluster bound at end of experiment (Percentage Absorbance 458 nm at time zero), CISD2 Gene Product (NAF-1): end of 500 minutes, Vehicle Control 3%; for stabiliser or destabiliser of Fe—S cluster binding, CISD2 Gene Product (NAF-1): time to 50% Fe—S cluster bound loss changed by more than 25% vs Control sample, at the concentrations tested
# T2 sequence (Q8N5K1 57-135 limits assumed): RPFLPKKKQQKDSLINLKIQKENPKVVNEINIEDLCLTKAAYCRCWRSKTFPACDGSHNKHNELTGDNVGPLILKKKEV
# Method: as §1, §2, §3, §4, §5, §6
# [4] = target: T3, CISD3 Gene Product (Miner2) (Homo sapiens, UniProt P0C7P0); test: Stability of Fe—S cluster binding of purified NEET protein Miner2; type: biochemical; settings: for Time (in minutes) to achieve 50% loss of bound cluster (Absorbance 458 nm), CISD3 Gene Product (Miner2) / Residual cluster bound at end of experiment (Percentage Absorbance 458 nm at time zero), CISD3 Gene Product (DMSO 11%): pH 6, 37° C., 1:3 protein:compound molar ratio; for Time (in minutes) to achieve 50% loss of bound cluster (Absorbance 458 nm), CISD3 Gene Product (Miner2): 6 μM compound, run time 180 minutes, Vehicle Control 60; for Residual cluster bound at end of experiment (Percentage Absorbance 458 nm at time zero), CISD3 Gene Product (DMSO 11%): end of 180 minutes, Vehicle Control 11%; for stabiliser or destabiliser of Fe—S cluster binding, CISD3 Gene Product (Miner2): time to 50% Fe—S cluster bound loss changed by more than 25% vs Control sample, at the concentrations tested
# T3 sequence (P0C7P0 15-127): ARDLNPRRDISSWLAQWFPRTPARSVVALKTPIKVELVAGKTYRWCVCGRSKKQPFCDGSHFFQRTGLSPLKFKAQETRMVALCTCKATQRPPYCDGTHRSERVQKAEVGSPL
# Method: as §1, §2, §3, §4, §5, §6
# [5] = Influenza A virus, H1N1, A549, 48 h
SMILES,IC50 [1] [nM],"Time (in minutes) to achieve 50% loss of bound cluster (Absorbance 458 nm), CISD1 Gene Product (mitoNEET) [2]","Residual cluster bound at end of experiment (Percentage Absorbance 458 nm at time zero), CISD1 Gene Product (mitoNEET) [2] [%]","Time (in minutes) to achieve 50% loss of bound cluster (Absorbance 458 nm), CISD2 Gene Product (NAF-1) [3]","Residual cluster bound at end of experiment (Percentage Absorbance 458 nm at time zero), CISD2 Gene Product (NAF-1) [3] [%]","stabiliser or destabiliser of Fe—S cluster binding, CISD2 Gene Product (NAF-1) [3]","Time (in minutes) to achieve 50% loss of bound cluster (Absorbance 458 nm), CISD3 Gene Product (Miner2) [4]","Residual cluster bound at end of experiment (Percentage Absorbance 458 nm at time zero), CISD3 Gene Product (DMSO 11%) [4] [%]","IC50 [1, 5] [nM]","stabiliser or destabiliser of Fe—S cluster binding, CISD1 Gene Product (mitoNEET) [2]","stabiliser or destabiliser of Fe—S cluster binding, CISD3 Gene Product (Miner2) [4]"
O=C(Nc1sc2c(c1C(=O)O)CCC(c1ccccc1)C2)c1ccccc1 (stereo not shown) [#46],150,80 min,18,90 min,14,destabilisers,60 min,13,,,
O=C(Nc1sc2c(c1C(=O)O)CCN(c1ccccc1)C2)c1ccccc1 [#52],,100 min,47,during 500 minutes,50,Stabilisers,during 180 minutes,54,90,stabilisers,Stabilisers
COc1ccc(C(=O)Nc2sc3c(c2C(=O)O)CCN(c2ccc(F)cc2C)C3)cc1OC [#54],,105 min,35,305 min,31,,85 min,41,60,stabilisers,Stabilisers
CC(C)(C)C1CCc2c(sc(NC(=O)c3ccccc3)c2C(=O)O)C1 (stereo not shown) [#71],160,100 min,34,125 min,15,destabilisers,70 min,42,,stabilisers,
CC1CCCc2sc(NC(=O)c3ccccc3)c(C(=O)O)c21 (stereo not shown) [#74],182,90 min,0,390 min,0,Stabilisers,65 min,5,,,
Cc1ccccc1C(=O)Nc1sc2c(c1C(=O)O)CCC(C(C)(C)C)C2 (stereo not shown) [#82],,during 180 minutes,60,265 min,27,,during 180 minutes,64,349,stabilisers,Stabilisers
CC(C)OC1CCc2c(sc(NC(=O)c3ccccc3)c2C(=O)O)C1 (stereo not shown) [#103],,95 min,4,415 min,4,Stabilisers,65 min,20,970,,
